Here are results for 20 molecules from ChEMBL document CHEMBL5042477, “Potent Cyclic Peptide Inhibitors of FXIIa Discovered by mRNA Display with Genetic Code Reprogramming” (J Med Chem, 2021).

One assay concerns the target T1, Coagulation factor XII (Homo sapiens, UniProt P00748).
T1 sequence (P00748 whole entry): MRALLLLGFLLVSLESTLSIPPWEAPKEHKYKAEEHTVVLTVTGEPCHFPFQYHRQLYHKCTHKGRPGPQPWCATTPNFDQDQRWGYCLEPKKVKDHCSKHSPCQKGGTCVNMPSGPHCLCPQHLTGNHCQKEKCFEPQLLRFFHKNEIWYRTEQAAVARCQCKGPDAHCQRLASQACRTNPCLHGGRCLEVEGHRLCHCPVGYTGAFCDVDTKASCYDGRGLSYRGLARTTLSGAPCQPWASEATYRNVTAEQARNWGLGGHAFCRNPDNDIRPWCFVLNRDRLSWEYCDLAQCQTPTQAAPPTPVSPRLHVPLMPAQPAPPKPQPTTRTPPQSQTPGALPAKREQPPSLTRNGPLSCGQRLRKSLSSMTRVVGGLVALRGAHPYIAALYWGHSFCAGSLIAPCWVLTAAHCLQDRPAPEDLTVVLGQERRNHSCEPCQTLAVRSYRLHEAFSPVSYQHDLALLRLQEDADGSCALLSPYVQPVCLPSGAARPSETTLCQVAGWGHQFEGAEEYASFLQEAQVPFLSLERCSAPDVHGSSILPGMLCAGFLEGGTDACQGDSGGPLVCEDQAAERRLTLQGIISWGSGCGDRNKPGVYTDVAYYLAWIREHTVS
Kind of assay: Inhibition of human factor 12a using H-D-Pro-Phe-Arg-p-nitroanilide as chromogenic substrate assessed as liberation of p-nitroaniline measured every 5 mins for 60 min by multimode plate reader analysis.

The next assay addresses Coagulation factor X (Homo sapiens, UniProt P00742). Kind of assay: Inhibition of human factor 10a using methoxycarbonyl-D-Nle-Gly-Arg-pNA as substrate measured after 60 mins by microplate reader analysis.

Where a SMILES comes first, the peptide text is derived from it. Bridges are numbered along the chain shown (N, C = ends). [ ]: non-standard residue; d: D form. Tyr(3-NO2) = N[C@@H](Cc1ccc(O)c([N+](=O)[O-])c1)C(=O)O; Phe(4-CF3) = N[C@@H](Cc1ccc(C(F)(F)F)cc1)C(=O)O; Tyr(3-F) = N[C@@H](Cc1ccc(O)c(F)c1)C(=O)O; Phe(3-OMe) = COc1cccc(C[C@H](N)C(=O)O)c1; Phe(2-CN) = N#Cc1ccccc1C[C@H](N)C(=O)O; Phe(4-F) = N[C@@H](Cc1ccc(F)cc1)C(=O)O; 2Nal = N[C@@H](Cc1ccc2ccccc2c1)C(=O)O; hTyr = N[C@@H](CCc1ccc(O)cc1)C(=O)O; 4Pal = N[C@@H](Cc1ccncc1)C(=O)O; Agb = N=C(N)NCC[C@H](N)C(=O)O; Orn = NCCC[C@H](N)C(=O)O

Coagulation factor X, sequence (P00742 41-179 limits assumed): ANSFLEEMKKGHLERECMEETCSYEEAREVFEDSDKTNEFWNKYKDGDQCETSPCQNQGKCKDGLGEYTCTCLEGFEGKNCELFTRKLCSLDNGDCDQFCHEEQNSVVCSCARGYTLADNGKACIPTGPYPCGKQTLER
Coagulation factor X, sequence (P00742 235-488 limits assumed): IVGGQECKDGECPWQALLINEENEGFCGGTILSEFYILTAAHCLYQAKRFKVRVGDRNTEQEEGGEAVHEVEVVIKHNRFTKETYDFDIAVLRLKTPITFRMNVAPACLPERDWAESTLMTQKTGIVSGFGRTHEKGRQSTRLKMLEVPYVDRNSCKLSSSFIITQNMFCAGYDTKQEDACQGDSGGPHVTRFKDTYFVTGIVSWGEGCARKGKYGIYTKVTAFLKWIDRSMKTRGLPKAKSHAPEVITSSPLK

Take `CC[C@H](C)[C@@H]1NC(=O)[C@H](C)NC(=O)[C@H](CCCCN)NC(=O)[C@H](Cc2ccccc2)NC(=O)[C@H](CCCNC(=N)N)NC(=O)[C@H](CC(C)C)NC(=O)[C@H](Cc2ccc(O)cc2)NC(=O)CSC[C@@H](C(N)=O)NC(=O)CNC(=O)CNC(=O)[C@H](CC(C)C)NC(=O)[C@H](CO)NC1=O` ({CH2CO}-YLRFKAISLGGC-NH2; thioether N-12): the IC50 at Coagulation factor XII worked out at 0.18 µM; on Coagulation factor X it was 41 µM.
For `CC(C)C[C@@H]1NC(=O)[C@H](Cc2ccc(O)cc2)NC(=O)CSC[C@@H](C(N)=O)NC(=O)CNC(=O)CNC(=O)[C@H](CCC(N)=O)NC(=O)[C@H](C)NC(=O)[C@H]([C@@H](C)O)NC(=O)[C@@H]2CCCN2C(=O)[C@H](CCCCN)NC(=O)[C@H](CC(C)C)NC(=O)[C@H](CCCNC(=N)N)NC1=O` ({CH2CO}-YLRLKPTAQGGC-NH2; thioether N-12), the IC50 at Coagulation factor XII is 0.59 µM.
On the same count and under the same terms, under `CC(C)C[C@@H]1NC(=O)[C@H](Cc2ccc(O)c([N+](=O)[O-])c2)NC(=O)CSC[C@@H](C(N)=O)NC(=O)CNC(=O)CNC(=O)[C@H](CCCNC(=N)N)NC(=O)[C@H](CC(=O)O)NC(=O)[C@H](CCCCN)NC(=O)[C@@H]2CCCN2C(=O)[C@H](CCCNC(=N)N)NC(=O)[C@H](Cc2ccccc2)NC(=O)[C@H](CCCNC(=N)N)NC1=O` ({CH2CO}-[Tyr(3-NO2)]LRFRPKDRGGC-NH2; thioether N-12) stands 90 µM; under `CC(C)C[C@@H]1NC(=O)[C@H](Cc2ccncc2)NC(=O)CSC[C@@H](C(N)=O)NC(=O)CNC(=O)CNC(=O)[C@H](CCCNC(=N)N)NC(=O)[C@H](CC(=O)O)NC(=O)[C@H](CCCCN)NC(=O)[C@@H]2CCCN2C(=O)[C@H](CCCNC(=N)N)NC(=O)[C@H](Cc2ccccc2)NC(=O)[C@H](CCCNC(=N)N)NC1=O` ({CH2CO}-[4Pal]LRFRPKDRGGC-NH2; thioether N-12), 12 µM; under `CC(C)C[C@@H]1NC(=O)[C@H](Cc2ccc(O)cc2)NC(=O)CSC[C@@H](C(N)=O)NC(=O)CNC(=O)CNC(=O)[C@H](CCCNC(=N)N)NC(=O)[C@H](CC(=O)O)NC(=O)[C@H](C)NC(=O)[C@@H]2CCCN2C(=O)[C@H](CCCNC(=N)N)NC(=O)[C@H](Cc2ccccc2)NC(=O)[C@H](CCCNC(=N)N)NC1=O` ({CH2CO}-YLRFRPADRGGC-NH2; thioether N-12), 0.4 µM.
As to `CC(C)C[C@@H]1NC(=O)[C@H](Cc2ccccc2C#N)NC(=O)CSC[C@@H](C(N)=O)NC(=O)CNC(=O)CNC(=O)[C@H](CCCNC(=N)N)NC(=O)[C@H](CC(=O)O)NC(=O)[C@H](CCCCN)NC(=O)[C@@H]2CCCN2C(=O)[C@H](CCCNC(=N)N)NC(=O)[C@H](Cc2ccccc2)NC(=O)[C@H](CCCNC(=N)N)NC1=O` ({CH2CO}-[Phe(2-CN)]LRFRPKDRGGC-NH2; thioether N-12), at Coagulation factor XII, the IC50 is 14 µM.
On the same count and under the same terms, the value for `CC(C)C[C@@H]1NC(=O)[C@H](Cc2ccc(C(F)(F)F)cc2)NC(=O)CSC[C@@H](C(N)=O)NC(=O)CNC(=O)CNC(=O)[C@H](CCCNC(=N)N)NC(=O)[C@H](CC(=O)O)NC(=O)[C@H](CCCCN)NC(=O)[C@@H]2CCCN2C(=O)[C@H](CCCNC(=N)N)NC(=O)[C@H](Cc2ccccc2)NC(=O)[C@H](CCCNC(=N)N)NC1=O` ({CH2CO}-[Phe(4-CF3)]LRFRPKDRGGC-NH2; thioether N-12) was 74 µM; that for `CC(C)C[C@@H]1NC(=O)[C@H]([C@@H](C)O)NC(=O)[C@H](Cc2ccccc2)NC(=O)[C@@H](CCCNC(=N)N)NC(=O)[C@@H](CC(C)C)NC(=O)[C@@H](Cc2ccc(O)cc2)NC(=O)CSC[C@@H](C(N)=O)NC1=O` was 3.8 µM; that for `CC(C)C[C@@H]1NC(=O)[C@H](Cc2ccccc2)NC(=O)CSC[C@@H](C(N)=O)NC(=O)CNC(=O)CNC(=O)[C@H](CCCNC(=N)N)NC(=O)[C@H](CC(=O)O)NC(=O)[C@H](CCCCN)NC(=O)[C@@H]2CCCN2C(=O)[C@H](CCCNC(=N)N)NC(=O)[C@H](Cc2ccccc2)NC(=O)[C@H](CCCNC(=N)N)NC1=O` ({CH2CO}-FLRFRPKDRGGC-NH2; thioether N-12) was 0.48 µM.
On the same count and under the same terms, the value for `CC(C)C[C@@H]1NC(=O)[C@H](Cc2ccc(O)cc2)NC(=O)CSC[C@@H](C(N)=O)NC(=O)[C@H](CCCNC(=N)N)NC(=O)[C@H](Cc2ccccc2)NC(=O)[C@H](CCCNC(=N)N)NC1=O` ({CH2CO}-YLRFRC-NH2; thioether N-6) was 200 µM; that for `CC(C)C[C@@H]1NC(=O)[C@H](Cc2ccc(O)c(F)c2)NC(=O)CSC[C@@H](C(N)=O)NC(=O)CNC(=O)CNC(=O)[C@H](CCCNC(=N)N)NC(=O)[C@H](CC(=O)O)NC(=O)[C@H](CCCCN)NC(=O)[C@@H]2CCCN2C(=O)[C@H](CCCNC(=N)N)NC(=O)[C@H](Cc2ccccc2)NC(=O)[C@H](CCCNC(=N)N)NC1=O` ({CH2CO}-[Tyr(3-F)]LRFRPKDRGGC-NH2; thioether N-12) was 0.15 µM.
Still for that read-out and setting: under `COc1cccc(C[C@@H]2NC(=O)CSC[C@@H](C(N)=O)NC(=O)CNC(=O)CNC(=O)[C@H](CCCNC(=N)N)NC(=O)[C@H](CC(=O)O)NC(=O)[C@H](CCCCN)NC(=O)[C@@H]3CCCN3C(=O)[C@H](CCCNC(=N)N)NC(=O)[C@H](Cc3ccccc3)NC(=O)[C@H](CCCNC(=N)N)NC(=O)[C@H](CC(C)C)NC2=O)c1` ({CH2CO}-[Phe(3-OMe)]LRFRPKDRGGC-NH2; thioether N-12) stands 0.64 µM; under `CC(C)C[C@@H]1NC(=O)[C@H](Cc2ccc(O)cc2)NC(=O)CSC[C@@H](C(N)=O)NC(=O)CNC(=O)CNC(=O)[C@H](CCCNC(=N)N)NC(=O)[C@H](CC(=O)O)NC(=O)[C@H](CCCCN)NC(=O)[C@@H]2CCCN2C(=O)[C@H](CCNC(=N)N)NC(=O)[C@H](Cc2ccccc2)NC(=O)[C@H](CCCNC(=N)N)NC1=O` ({CH2CO}-YLRF[Agb]PKDRGGC-NH2; thioether N-12), 3.3 µM; under `CC(C)C[C@@H]1NC(=O)[C@H](Cc2ccc(O)cc2)NC(=O)CSC[C@@H](C(N)=O)NC(=O)CNC(=O)CNC(=O)[C@H](CCCNC(=N)N)NC(=O)[C@H](CC(=O)O)NC(=O)[C@H](CCCCN)NC(=O)[C@@H]2CCCN2C(=O)[C@H](CCCNC(=N)N)NC(=O)[C@H](Cc2ccc(C(F)(F)F)cc2)NC(=O)[C@H](CCCNC(=N)N)NC1=O` ({CH2CO}-YLR[Phe(4-CF3)]RPKDRGGC-NH2; thioether N-12), 0.11 µM.
As to `CC(C)C[C@@H]1NC(=O)[C@H](Cc2ccc(O)cc2)NC(=O)CSC[C@@H](C(N)=O)NC(=O)CNC(=O)CNC(=O)[C@H](CCCNC(=N)N)NC(=O)[C@H](CC(=O)O)NC(=O)[C@H](CCCCN)NC(=O)[C@@H]2CCCN2C(=O)[C@H](CCCNC(=N)N)NC(=O)[C@H](Cc2ccc3ccccc3c2)NC(=O)[C@H](CCCNC(=N)N)NC1=O` ({CH2CO}-YLR[2Nal]RPKDRGGC-NH2; thioether N-12), the IC50 on Coagulation factor XII was determined as 0.05 µM.
Still for that read-out and setting: the value for `CC(C)C[C@@H]1NC(=O)[C@H](Cc2ccc(O)cc2)NC(=O)CSC[C@@H](C(N)=O)NC(=O)CNC(=O)CNC(=O)[C@H](CCCNC(=N)N)NC(=O)[C@H](CC(=O)O)NC(=O)[C@H](CCCCN)NC(=O)[C@@H]2CCCN2C(=O)[C@H](CCCNC(=N)N)NC(=O)[C@H](Cc2ccccc2)NC(=O)[C@H](CCCN)NC1=O` ({CH2CO}-YL[Orn]FRPKDRGGC-NH2; thioether N-12) was 71 µM; that for `CC(C)C[C@@H]1NC(=O)[C@H](Cc2ccc(O)cc2)NC(=O)CSC[C@@H](C(N)=O)NC(=O)CNC(=O)CNC(=O)[C@H](CCCNC(=N)N)NC(=O)[C@H](CC(=O)O)NC(=O)[C@H](CCCCN)NC(=O)[C@H](C)NC(=O)[C@H](CCCNC(=N)N)NC(=O)[C@H](Cc2ccccc2)NC(=O)[C@H](CCCNC(=N)N)NC1=O` ({CH2CO}-YLRFRAKDRGGC-NH2; thioether N-12) was 0.26 µM; that for `CC(C)C[C@@H]1NC(=O)[C@H](Cc2ccc(O)cc2)NC(=O)CSC[C@@H](C(N)=O)NC(=O)CNC(=O)CNC(=O)[C@H](CCCNC(=N)N)NC(=O)[C@H](CC(=O)O)NC(=O)[C@H](CCCCN)NC(=O)[C@@H]2CCCN2C(=O)[C@H](CCCNC(=N)N)NC(=O)[C@H](Cc2ccc(F)cc2)NC(=O)[C@H](CCCNC(=N)N)NC1=O` ({CH2CO}-YLR[Phe(4-F)]RPKDRGGC-NH2; thioether N-12) was 0.046 µM.
Still for that read-out and setting: the value for `CC(C)C[C@@H]1NC(=O)[C@H](Cc2ccc(O)cc2)NC(=O)CSC[C@@H](C(N)=O)NC(=O)CNC(=O)CNC(=O)[C@H](CCCNC(=N)N)NC(=O)[C@H](CC(=O)O)NC(=O)[C@H](CCCCN)NC(=O)[C@@H]2CCCN2C(=O)[C@H](CCCNC(=N)N)NC(=O)[C@H](CCc2ccc(O)cc2)NC(=O)[C@H](CCCNC(=N)N)NC1=O` ({CH2CO}-YLR[hTyr]RPKDRGGC-NH2; thioether N-12) was 0.56 µM; that for `CC(C)C[C@@H]1NC(=O)[C@H](Cc2ccc(O)cc2)NC(=O)CSC[C@@H](C(N)=O)NC(=O)CNC(=O)CNC(=O)[C@H](CCCNC(=N)N)NC(=O)[C@H](CC(=O)O)NC(=O)[C@H](CCCCN)NC(=O)[C@@H]2CCCN2C(=O)[C@H](CCCNC(=N)N)NC(=O)[C@H](Cc2ccccc2)NC(=O)[C@H](CCCCN)NC1=O` ({CH2CO}-YLKFRPKDRGGC-NH2; thioether N-12) was 0.3 µM.
